Assay results taken from patent publication US5756463A, “Use of insulin and IGF-1” (Pharmacia & Upjohn AB, priority 1994, dated 1998).
Entries after “also recorded” stand apart in the source; their conditions may differ.

Columns and labels:
Male Sprague-Dawley rats [1] = experiment: Example 2: feed intake, nitrogen digestibility and nitrogen retention in dexamethasone-infused rats, 8-day mini-pump infusion of peptide combinations; type: in vivo, rat; conditions: 8 days; for nitrogen retention, effect compared with Dex without peptide: Dex 26 μg/day plus peptide; for relative nitrogen retention (retained N/digested N×100): Dex 26 μg/day with saline or with insulin 39, rhGH 360, rhIGF-I 500 μg/day, mean, pooled SE, saline alone 38.7%
Description: On day zero the rats were anaesthetized intraperitoneally with 0.4 ml per 100 g body weight of a mixture of Rompun (20 mg.ml^-1), Ketalar (50 mg.ml^-1) and Saline (0.9%) in 1:2:3 volume proportions. The hair on the back of the rats was shaved off and the exposed skin carefully washed with 0.05% chlorhexidine (Pharmacia, Stockholm, Sweden) and 0.4 % jodopax (Molnlycke, Goteborg, Sweden), both being diluted in 70% alcohol.
Two mutually parallel incisions, each of 15 mm in length, were then made along the dorsal midline. The incisions penetrated the epidermis, dermis and subcutaneous muscle but left the deep fascia intact. Two subcutaneous pockets were made on both sides of the incisions by separating the subcutaneous muscle from the deep fascia. One (Exp. I) or two (Exp. 2) mini-pumps were implanted in each pocket. The wounds were closed with sutures 4-0 (Johnson & Johnson).
Osmotic mini-pumps (Alzet 2001, Alza Corporation, Palo Alto, USA) releasing 1 μl.h^-1 for 8 days were used for continuous delivery of hormones and Dex to the animals. The pumps were filled to a volume of 0.22 ml with solutions of rhGH (14.4 mg.ml^-1, Genotropin®, Pharmacia), rhlGF-I (20 mg.ml^-1, Igef®, Pharmacia, Kabi Peptide Hormones, Stockholm, Sweden), insulin (1.57 mg/ml, Actrapid®, Novo, Copenhagen, Denmark), Dex (1.04 mg.ml^-1, Decadron, Merck Sharp & Dohme International, Rathway, USA) or Saline (0.9%). Two (Example 1) or four (Example 2) pumps combined as described above were implanted in each rat. Implantation of the pumps was performed under strictly aseptic conditions.
Total feed intake was registered throughout the full 8 day experimental period. Urine and faeces were collected daily, pooled and kept at -20° C. until analysed. Excreta was collected by housing the animals in individual metabolism cages that were specially designed for the separation of urine and faeces. In order to inhibit urease-activity in the urine, 1 ml of 5% sulphuric acid was pipetted every morning in the collection vessels. The 24 hour collections of urine were pooled individually for each treatment period and immediately frozen after the collection. Similarly, the samples of faeces were also pooled individually for each treatment period and kept frozen (-20° C.) until analysis.
Urea in serum was determined spectrophotometrically by using the Urea UV Uni-Kit I (Roche) with an autoanalyzer (Cobas Mira, Roche Co, Basel, Switzerland). Urea values were expressed in mmol/l. The total nitrogen content in urine was determined with the aid of the Antek Pyro-Chemiluminiscence Nitrogen System. The apparatus used comprised the Antek 7000N nitrogen analyser with Liquid Auto Sampler 736-2 and a pyrolysis tube with a ceramic liner (Antek Instruments Inc., Houston, Tex., U.S.A.). The frozen urinary samples were thawed and diluted 1:100 with 0.1 M HCl and then analysed. The urinary nitrogen values were then calculated as mg nitrogen excreted.
Total nitrogen in faeces was determined by an established Kjeldahl method (Kjeltec System, Tecator AB, Halsingborg, Sweden). The frozen faecal samples were thawed and dried in an oven at 60° C. overnight. The weight of the dried sample was noted and the sample then ground. 0.20 g of the milled faecal sample was mixed in a Kjeldahl digestion tube with 10.0 ml of concentrated sulphuric acid. 2.0 ml of a 30% solution of H202 (30% Perhydrol, Merck, Darmstadt, Germany) was added and mixed carefully. One catalyst tablet (Kjeltabs CA, Thompson & Capper, Runcom, Cheshire, UK) was added to each sample. The mixture was digested at […] for at least one hour or until complete bleaching of the sample was achieved. The nitrogen content of this solution was determined after alkalinization by steam distillation of the ammonia and automated titration of the distillate. The faecal nitrogen values were calculated as mg nitrogen excreted.
Data were subjected to a one-way analysis of variance in which the effect of treatment was considered the prime source of variation.

Male Sprague-Dawley rats [2] = experiment: Example 1: body weight gain and nitrogen retention in dexamethasone-infused rats, 8-day subcutaneous mini-pump infusion; type: in vivo, rat; conditions: 8 days
Description: On day zero the rats were anaesthetized intraperitoneally with 0.4 ml per 100 g body weight of a mixture of Rompun (20 mg.ml^-1), Ketalar (50 mg.ml^-1) and Saline (0.9%) in 1:2:3 volume proportions. The hair on the back of the rats was shaved off and the exposed skin carefully washed with 0.05% chlorhexidine (Pharmacia, Stockholm, Sweden) and 0.4 % jodopax (Molnlycke, Goteborg, Sweden), both being diluted in 70% alcohol. Two mutually parallel incisions, each of 15 mm in length, were then made along the dorsal midline. The incisions penetrated the epidermis, dermis and subcutaneous muscle but left the deep fascia intact. Two subcutaneous pockets were made on both sides of the incisions by separating the subcutaneous muscle from the deep fascia. One (Exp. I) or two (Exp. 2) mini-pumps were implanted in each pocket. The wounds were closed with sutures 4-0 (Johnson & Johnson). Osmotic mini-pumps (Alzet 2001, Alza Corporation, Palo Alto, USA) releasing 1 μl.h^-1 for 8 days were used for continuous delivery of hormones and Dex to the animals. The pumps were filled to a volume of 0.22 ml with solutions of rhGH (14.4 mg.ml^-1, Genotropin®, Pharmacia), […] (20 mg.ml^-1, Igef®, Pharmacia, Kabi Peptide Hormones, Stockholm, Sweden), insulin (1.57 mg/ml, Actrapid®, Novo, Copenhagen, Denmark), Dex (1.04 mg.ml^-1, Decadron, Merck Sharp & Dohme International, […], USA) or Saline (0.9%). Two (Example 1) or four (Example 2) pumps combined as described above were implanted in each rat. Implantation of the pumps was performed under strictly aseptic conditions. Total feed intake was registered throughout the full 8 day experimental period. Urine and faeces were collected daily, pooled and kept at -20° C. until analysed. Excreta was collected by housing the animals in individual metabolism cages that were specially designed for the separation of urine and faeces. In order to inhibit urease-activity in the urine, 1 ml of 5% sulphuric acid was pipetted every morning in the collection vessels. The 24 hour collections of urine were pooled individually for each treatment period and immediately frozen after the collection. Similarly, the samples of faeces were also pooled individually for each treatment period and kept frozen (-20° C.) until analysis. Urea in serum was determined spectrophotometrically by using the Urea UV Uni-Kit I (Roche) with an autoanalyzer (Cobas Mira, Roche Co, Basel, Switzerland). Urea values were expressed in mmol/l. The total nitrogen content in urine was determined with the aid of the Antek Pyro-Chemiluminiscence Nitrogen System. The apparatus used comprised the […] nitrogen analyser with Liquid Auto Sampler 736-2 and a pyrolysis tube with a ceramic […] Instruments Inc., Houston, Tex., U.S.A.). The frozen urinary samples were thawed and diluted 1:100 with 0.1 M HCl and then analysed. The urinary nitrogen values were then calculated as mg nitrogen excreted. Total nitrogen in faeces was determined by an established Kjeldahl method (Kjeltec System, Tecator AB, Halsingborg, Sweden). The frozen faecal samples were thawed and dried in an oven at 60° C. overnight. The weight of the dried sample was noted and the sample then ground. 0.20 g of the milled faecal sample was mixed in a Kjeldahl digestion tube with 10.0 ml of concentrated sulphuric acid. 2.0 ml of a 30% solution of H202 (30% Perhydrol, Merck, Darmstadt, Germany) was added and mixed carefully. One catalyst tablet (Kjeltabs CA, Thompson & Capper, Runcom, Cheshire, UK) was added to each sample. The mixture was digested at […] for at least one hour or until complete bleaching of the sample was achieved. […] The faecal nitrogen values were calculated as mg nitrogen excreted. Data were subjected to a one-way analysis of variance in which the effect of treatment was considered the prime source of variation. Calculations were executed by the GLM procedure of the SAS program (SAS 1985). […]

[3] = Dex 26, 13 or 6.5 μg/day (every Dex dose), rhGH 360 μg/day or rhIGF-I 500 μg/day s.c. mini-pump, compared with saline

Row | Molecule | nitrogen retention, effect compared with Dex without peptide (Male Sprague-Dawley rats [1]) | relative nitrogen retention (retained N/digested N×100) (Male Sprague-Dawley rats [1]) | body weight gain (Male Sprague-Dawley rats [2]; [3]) | retention of nitrogen (Male Sprague-Dawley rats [2]; Dex 26, 13 or 6.5 μg/day, rhIGF-I 500 μg/day, compared with saline and rhGH) | body weight gain, effect of Dex dose (Male Sprague-Dawley rats [2]; Dex 6.5, 13, 26 μg/day) | reduction of feed intake (Male Sprague-Dawley rats [1]; Dex 26 μg/day) | body weight gain (Male Sprague-Dawley rats [2]; Dex 26, 13 or 6.5 μg/day (every Dex dose), rhGH 360 μg/day or rhIGF-I 500 μg/day s.c. mini-pump, compared with saline, listed as hGH) | body weight gain (Male Sprague-Dawley rats [2]; medium and high Dex infusion dose (13 and 26 μg/day), rhGH 360 μg/day)
1 | insulin | without effect | 11.9% | – | – | – | – | – | –
2 | recombinant human insulin-like growth factor I [rhIGF-I] | – | 23.0% | significantly (p<0.05) higher weight gain in comparison with saline; also recorded: significantly (p<0.05) increased | significantly (p<0.05) higher | – | – | – | –
3 | C[C@@H]1C[C@H]2[C@@H]3CCC4=CC(=O)C=C[C@]4(C)[C@@]3(F)[C@@H](O)C[C@]2(C)[C@@]1(O)C(=O)CO [Dex, dexamethasone, reference compound] | – | 7.2% | – | – | general decrease with increased Dex dose | approximately 20% | – | –
4 | recombinant human growth hormone [rhGH] | without effect | 3.8% | opposite effect | – | – | – | opposite effect (p<0.05) | negative values for body weight gain
